According to patent US20250346616A1 (DIZAL (JIANGSU) PHARMACEUTICAL CO., LTD., priority 2022, published 2025):

Columns and labels:
[1] = molecular target: Recombinant ROCK1 (Homo sapiens (Human), UniProt Q13464); assay: Lance Ultra Kinase Assay, ROCK1 inhibition; type: biochemical; details: ATP at Km, 30 min pre-incubation, 1 h reaction
Protocol: (§1) The inhibition potency of compounds against these enzymes was assessed using Lance Ultra Kinase Assay. In brief, recombinant kinases were pre-incubated in the presence or absence of compound at room temperature for 30 minutes. The reaction was initiated by the addition of the ATP (Km) and substrate peptide which could be phosphorylated by kinases in the reaction. After 1 h incubation, the reaction was stopped by the addition of the detection reagent mix containing EDTA. The fluorescence was measured at 615 nm and 665 nm, respectively with excitation wavelength at 320 nm. The calculated signal ratio of 665 nm/615 nm is proportional to the kinase activity.

[2] = molecular target: Recombinant ROCK2 (Homo sapiens (Human), UniProt O75116); assay: Lance Ultra Kinase Assay, ROCK2 inhibition; type: biochemical; details: ATP at Km, 30 min pre-incubation, 1 h reaction
Chain of Recombinant ROCK2 (O75116 whole entry): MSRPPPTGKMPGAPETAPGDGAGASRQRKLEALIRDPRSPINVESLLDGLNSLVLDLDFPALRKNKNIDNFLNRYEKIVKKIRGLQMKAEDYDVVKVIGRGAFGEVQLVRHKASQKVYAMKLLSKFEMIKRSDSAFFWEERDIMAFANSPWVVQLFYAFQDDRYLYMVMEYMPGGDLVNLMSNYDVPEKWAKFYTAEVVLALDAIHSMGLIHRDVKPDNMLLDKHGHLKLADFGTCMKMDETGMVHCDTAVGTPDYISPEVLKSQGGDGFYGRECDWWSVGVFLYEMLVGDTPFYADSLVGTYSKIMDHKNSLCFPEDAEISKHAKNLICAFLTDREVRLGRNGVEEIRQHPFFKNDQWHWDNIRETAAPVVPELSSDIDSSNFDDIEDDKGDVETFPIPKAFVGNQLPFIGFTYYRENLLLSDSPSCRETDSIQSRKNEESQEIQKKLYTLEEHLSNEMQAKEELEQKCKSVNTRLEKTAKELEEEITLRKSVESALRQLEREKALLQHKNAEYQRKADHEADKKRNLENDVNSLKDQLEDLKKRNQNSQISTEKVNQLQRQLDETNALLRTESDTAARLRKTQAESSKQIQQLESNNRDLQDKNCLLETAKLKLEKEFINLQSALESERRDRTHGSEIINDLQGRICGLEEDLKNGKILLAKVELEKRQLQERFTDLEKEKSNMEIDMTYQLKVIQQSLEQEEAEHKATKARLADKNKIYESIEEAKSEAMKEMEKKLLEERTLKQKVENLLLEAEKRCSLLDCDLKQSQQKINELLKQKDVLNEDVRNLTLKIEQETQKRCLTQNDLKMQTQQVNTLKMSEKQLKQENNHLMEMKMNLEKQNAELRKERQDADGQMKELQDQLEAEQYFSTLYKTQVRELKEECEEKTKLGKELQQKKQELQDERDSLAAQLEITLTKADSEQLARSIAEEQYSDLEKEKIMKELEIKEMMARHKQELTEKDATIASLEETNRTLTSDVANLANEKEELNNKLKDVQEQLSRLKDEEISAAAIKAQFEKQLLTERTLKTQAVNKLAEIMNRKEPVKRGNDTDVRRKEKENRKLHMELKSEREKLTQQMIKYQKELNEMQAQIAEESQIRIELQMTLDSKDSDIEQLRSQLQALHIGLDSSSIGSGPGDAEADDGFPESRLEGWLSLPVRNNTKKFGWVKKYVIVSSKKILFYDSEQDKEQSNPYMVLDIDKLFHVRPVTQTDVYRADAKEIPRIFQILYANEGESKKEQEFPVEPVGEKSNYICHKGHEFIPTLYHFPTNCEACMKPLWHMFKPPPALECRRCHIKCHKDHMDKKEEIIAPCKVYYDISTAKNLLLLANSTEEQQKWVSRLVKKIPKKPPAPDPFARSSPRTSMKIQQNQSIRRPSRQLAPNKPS
Protocol: as §1

Chain of Recombinant ROCK1 (Q13464 whole entry): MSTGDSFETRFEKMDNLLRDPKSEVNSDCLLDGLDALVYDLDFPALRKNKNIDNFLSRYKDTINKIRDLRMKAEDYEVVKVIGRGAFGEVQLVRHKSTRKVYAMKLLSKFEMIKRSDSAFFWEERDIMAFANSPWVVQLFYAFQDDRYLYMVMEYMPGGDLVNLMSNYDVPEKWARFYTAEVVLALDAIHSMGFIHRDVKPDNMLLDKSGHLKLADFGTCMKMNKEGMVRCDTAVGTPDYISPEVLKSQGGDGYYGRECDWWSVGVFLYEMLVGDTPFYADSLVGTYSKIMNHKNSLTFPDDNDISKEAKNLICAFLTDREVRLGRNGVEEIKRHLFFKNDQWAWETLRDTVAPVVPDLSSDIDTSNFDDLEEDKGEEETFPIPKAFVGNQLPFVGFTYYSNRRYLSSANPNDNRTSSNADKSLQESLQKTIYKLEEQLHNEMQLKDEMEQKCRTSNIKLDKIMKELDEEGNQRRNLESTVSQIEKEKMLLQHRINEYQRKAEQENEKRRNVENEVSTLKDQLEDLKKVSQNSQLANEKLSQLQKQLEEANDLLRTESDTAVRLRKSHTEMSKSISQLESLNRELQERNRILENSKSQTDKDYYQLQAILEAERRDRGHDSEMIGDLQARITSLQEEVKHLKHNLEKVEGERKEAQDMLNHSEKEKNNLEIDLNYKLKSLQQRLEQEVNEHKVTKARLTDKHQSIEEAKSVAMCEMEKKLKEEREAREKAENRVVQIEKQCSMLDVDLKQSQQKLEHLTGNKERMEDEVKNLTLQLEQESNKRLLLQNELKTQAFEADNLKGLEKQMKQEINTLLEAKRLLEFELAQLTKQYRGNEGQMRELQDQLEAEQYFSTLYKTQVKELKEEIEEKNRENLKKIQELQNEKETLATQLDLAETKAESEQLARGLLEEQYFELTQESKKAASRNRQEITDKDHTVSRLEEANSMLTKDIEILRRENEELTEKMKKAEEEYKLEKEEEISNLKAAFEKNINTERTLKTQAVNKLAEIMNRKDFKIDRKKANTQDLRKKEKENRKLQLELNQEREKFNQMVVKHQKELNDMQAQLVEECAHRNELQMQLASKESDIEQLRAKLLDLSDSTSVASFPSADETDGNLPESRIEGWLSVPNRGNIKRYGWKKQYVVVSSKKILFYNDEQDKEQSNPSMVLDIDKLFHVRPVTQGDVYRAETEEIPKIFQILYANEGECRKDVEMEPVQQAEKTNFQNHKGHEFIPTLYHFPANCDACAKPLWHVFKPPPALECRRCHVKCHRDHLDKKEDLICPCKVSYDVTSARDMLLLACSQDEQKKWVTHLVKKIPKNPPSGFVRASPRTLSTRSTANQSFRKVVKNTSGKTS

Compound | IC50 [1] [nM] | IC50 [2] [nM]
N#Cc1ccc(C(CN)C(=O)Nc2cccc3c(-c4cn[nH]c4)c[nH]c23)cc1 (racemic) [Example 86, 3-amino-2-(4-cyanophenyl)-N-[3-(1H-pyrazol-4-yl)-1H-indol-7-yl]propanamide] | 2.7 | 0.98
NCC(C(=O)Nc1cccc2c(-c3cn[nH]c3)c[nH]c12)C1CCOC1 (racemic) [Example 94, N-(3-(1H-pyrazol-4-yl)-1H-indol-7-yl)-3-amino-2-(tetrahydrofuran-3-yl)propanamide] | 6.5 | 3
COc1cncc(C(CN2CCN(C)CC2)C(=O)Nc2cccc3c(-c4cn[nH]c4)c[nH]c23)c1 (single isomer, unassigned) [Example 111, N-(3-(1H-pyrazol-4-yl)-1H-indol-7-yl)-2-(5-methoxypyridin-3-yl)-3-(4-methylpiperazin-1-yl)propanamide] | 297 | 167
NCc1cccc(C(CN)C(=O)Nc2cccc3c(-c4cn[nH]c4)c[nH]c23)c1 (racemic) [Example 76, 3-amino-2-[3-(aminomethyl)phenyl]-N-[3-(1H-pyrazol-4-yl)-1H-indol-7-yl]propanamide] | 14 | 7.9
NCC(C(=O)Nc1cccc2c(-c3cn[nH]c3)c[nH]c12)c1cccc(O)c1 (single isomer, unassigned) [Example 65, N-(3-(1H-pyrazol-4-yl)-1H-indol-7-yl)-3-amino-2-(3-hydroxyphenyl)propanamide] | 4.4 | 2.5
CN(C)C(=O)c1ccc(C(CN)C(=O)Nc2cccc3c(-c4cn[nH]c4)c[nH]c23)cc1 (racemic) [Example 72, 4-(2-amino-1-{[3-(1H-pyrazol-4-yl)-1H-indol-7-yl]carbamoyl}ethyl)-N,N-dimethylbenzamide] | 173 | 67
COc1ccc(C(CN)NC(=O)c2cccc3c(-c4cn[nH]c4)c[nH]c23)cc1 (single isomer, unassigned) [Example 145, N-(2-amino-1-(4-methoxyphenyl)ethyl)-3-(1H-pyrazol-4-yl)-1H-indole-7-carboxamide] | 46 | 20
Cc1cccc(C(CN)C(=O)Nc2cccc3c(-c4cn[nH]c4)c[nH]c23)c1 (racemic) [Example 87, N-(3-(1H-pyrazol-4-yl)-1H-indol-7-yl)-3-amino-2-(m-tolyl)propanamide] | 0.29 | 0.18
NC[C@@H](NC(=O)c1cncc2c(-c3cn[nH]c3)c[nH]c12)c1ccccc1 [Example 148, N-[(1S)-2-amino-1-phenyl-ethyl]-3-(1H-pyrazol-4-yl)-1H-pyrrolo[3,2-c]pyridine-7-carboxamide] | 21 | 5.7
CN1CCN(CC(C(=O)Nc2cccc3c(-c4cn[nH]c4)c[nH]c23)c2cccnc2)CC1 (single isomer, unassigned) [Example 67, N-(3-(1H-pyrazol-4-yl)-1H-indol-7-yl)-3-(4-methylpiperazin-1-yl)-2-(pyridin-3-yl)propanamide] | 2.6 | 1.6
CNC(=O)OCc1cccc(C(CN)C(=O)Nc2cccc3c(-c4cn[nH]c4)c[nH]c23)c1 (single isomer, unassigned) [Example 51, 3-(1-((3-(1H-pyrazol-4-yl)-1H-indol-7-yl)amino)-3-amino-1-oxopropan-2-yl)benzyl methylcarbamate] | 33 | 22
NCC(C(=O)Nc1cccc2c(-c3cn[nH]c3)c[nH]c12)c1ccc(N)cc1 (racemic) [Example 80, 3-amino-2-(4-aminophenyl)-N-[3-(1H-pyrazol-4-yl)-1H-indol-7-yl]propanamide] | 0.39 | 0.18
NC(C(=O)Nc1cccc2c(-c3cn[nH]c3)c[nH]c12)C1CCCCC1 (racemic) [Example 122, N-(3-(1H-pyrazol-4-yl)-1H-indol-7-yl)-2-amino-2-cyclohexylacetamide] | 11 | 8.9
Cc1ccc(C(=O)OCc2ccc(C(CN)C(=O)Nc3cccc4c(-c5cn[nH]c5)c[nH]c34)cc2)c(C)c1 (single isomer, unassigned) [Example 6] | 442 | 247
COc1cc(C(CN)C(=O)Nc2cccc3c(-c4cn[nH]c4)c[nH]c23)ccc1CO (racemic) [Example 101, 3-amino-2-[4-(hydroxymethyl)-3-methoxyphenyl]-N-[3-(1H-pyrazol-4-yl)-1H-indol-7-yl]propanamide] | 1.6 | 0.81
COc1cccc([C@H](N)C(=O)Nc2cccc3c(-c4cn[nH]c4)c[nH]c23)c1 [Example 41, (2S)-2-amino-2-(3-methoxyphenyl)-N-[3-(1H-pyrazol-4-yl)-1H-indol-7-yl]acetamide] | 5.4 | 3.5

Compound | IC50 [1] [nM] | IC50 [2] [nM]
N#Cc1cccc([C@@H](N)C(=O)Nc2cccc3c(-c4cn[nH]c4)c[nH]c23)c1 (single isomer, unassigned) [Example 68, N-(3-(1H-pyrazol-4-yl)-1H-indol-7-yl)-2-amino-2-(3-cyanophenyl) acetamide] | 4 | 1.5
N#Cc1cccc(C(CN)C(=O)Nc2cccc3c(-c4cn[nH]c4)c[nH]c23)c1 (single isomer, unassigned) [Example 21, N-(3-(1H-pyrazol-4-yl)-1H-indol-7-yl)-3-amino-2-(3-cyanophenyl)propanamide] | 125 | 70
NCC(C(=O)Nc1cccc2c(-c3cn[nH]c3)c[nH]c12)C1CCOCC1 (single isomer, unassigned) [Example 27, N-(3-(1H-pyrazol-4-yl)-1H-indol-7-yl)-3-amino-2-(tetrahydro-2H-pyran-4-yl)propanamide] | 87 | 66
COc1ccccc1C(CN)C(=O)Nc1cccc2c(-c3cn[nH]c3)c[nH]c12 (racemic) [Example 84, 3-amino-2-(2-methoxyphenyl)-N-[3-(1H-pyrazol-4-yl)-1H-indol-7-yl]propanamide] | 1.3 | 0.96
CN1CCC(C(C(=O)Nc2cccc3c(-c4cn[nH]c4)c[nH]c23)c2ccccc2)CC1 (single isomer, unassigned) [Example 44, N-(3-(1H-pyrazol-4-yl)-1H-indol-7-yl)-2-(1-methylpiperidin-4-yl)-2-phenylacetamide] | 111 | 70
NCC(C(=O)Nc1cccc2c(-c3cn[nH]c3)c[nH]c12)C1CCCC1 (racemic) [Example 95, 3-amino-2-cyclopentyl-N-[3-(1H-pyrazol-4-yl)-1H-indol-7-yl]propanamide] | 3.7 | 2.3
CN1CCN(C[C@@H](C(=O)Nc2cccc3c(-c4cn[nH]c4)c[nH]c23)c2ccccc2)CC1 [Example 40] | 0.33 | 0.18
NCC(C(=O)Nc1cccc2c(-c3cn[nH]c3)c[nH]c12)C1CCCCC1 (single isomer, unassigned) [Example 24, N-(3-(1H-pyrazol-4-yl)-1H-indol-7-yl)-3-amino-2-cyclohexylpropanamide] | 4 | 3
CC(=O)Nc1ccc(C(CN)C(=O)Nc2cccc3c(-c4cnn(C(=O)OC(C)(C)C)c4)c[nH]c23)cc1 (racemic) [Example 92, tert-butyl 4-{7-[3-amino-2-(4-acetamidophenyl)propanamido]-1H-indol-3-yl}pyrazole-1-carboxylate] | 16 | 6
Cn1ccc(C(CN)C(=O)Nc2cccc3c(-c4cn[nH]c4)c[nH]c23)cc1=O (racemic) [Example 103, 3-amino-2-(1-methyl-2-oxopyridin-4-yl)-N-[3-(1H-pyrazol-4-yl)-1H-indol-7-yl]propanamide] | 1.4 | 0.53
COc1cccc(C(CN)NC(=O)c2cccc3c(-c4cn[nH]c4)c[nH]c23)c1 (single isomer, unassigned) [Example 139, N-(2-amino-1-(3-methoxyphenyl)ethyl)-3-(1H-pyrazol-4-yl)-1H-indole-7-carboxamide] | 5.5 | 3.1
O=C(Nc1cccc2c(-c3cn[nH]c3)c[nH]c12)C1CNCc2ccccc21 (racemic) [Example 133, N-(3-(1H-pyrazol-4-yl)-1H-indol-7-yl)-1,2,3,4-tetrahydroisoquinoline-4-carboxamide] | 44 | 31
NCC(C(=O)Nc1cccc2c(-c3cn[nH]c3)c[nH]c12)c1cccc(O)c1 (single isomer, unassigned) [Example 64, N-(3-(1H-pyrazol-4-yl)-1H-indol-7-yl)-3-amino-2-(3-hydroxyphenyl)propanamide] | 0.37 | 0.19
COc1cccc(C(NC(=O)c2cccc3c(-c4cn[nH]c4)c[nH]c23)C2CCN(C)CC2)c1 (single isomer, unassigned) [Example 142, N-((3-methoxyphenyl) (1-methylpiperidin-4-yl)methyl)-3-(1H-pyrazol-4-yl)-1H-indole-7-carboxamide] | 113 | 37
COc1cc(OC)cc(C(N)C(=O)Nc2cccc3c(-c4cn[nH]c4)c[nH]c23)c1 (racemic) [Example 83, 2-amino-2-(3,5-dimethoxyphenyl)-N-[3-(1H-pyrazol-4-yl)-1H-indol-7-yl]acetamide] | 7.3 | 3.1
COc1cccc(C(NC(=O)c2cccc3c(-c4cn[nH]c4)c[nH]c23)C2CCN(C)CC2)c1 (single isomer, unassigned) [Example 141, N-((3-methoxyphenyl) (1-methylpiperidin-4-yl)methyl)-3-(1H-pyrazol-4-yl)-1H-indole-7-carboxamide] | 331 | 163
